Results reported in patent US9676820B2, “Method for inhibiting proliferation of high LIX1L-expressing tumor cell, and tumor cell proliferation-inhibiting peptide” (National University Corporation Hamamatsu University School …, priority 2013, dated 2017).

Tests used:
MKN45 cell strains = test: Cancer mouse model transplanted with MKN45 cell strain; type: in vivo; settings: nude mice with MKN45 transplant; 100 μL of 30 μM peptide solution 4 times; vs spare mice given nothing
Experimental: Rearing of 10 nude male mice (BALB/cAJcl-nu/nu, purchased from CLEA Japan, Inc.) at the age of 7 weeks was started, and MKN45 cell strains separately cultured were transplanted into the mice by being subcutaneously injected thereinto on day 31. The day on which the transplantation was performed was set as day 0, the mice were divided into two groups (peptide 1-administered group and control peptide-administered group) of 5 mice on day 14 of the transplantation, 4 mice were selected among the 5 mice from each group, and the peptide 1 or the control peptide was administered. The remaining one mouse was set as a spare. In the peptide 1-administered group, 100 μL of a 30 μM peptide 1 solution (solution prepared by adding a methylcellulose solution to the solution after the peptide 1 was dissolved in PBS (−)) was subcutaneously injected into a tumor site (site into which the MKN45 cell strain was injected) 4 times every 3 days. In the control peptide-administered group, 100 μL of a 30 μM control peptide solution (solution prepared by adding a methylcellulose solution to the solution after the control peptide was dissolved in PBS (−)) was subcutaneously injected into a tumor site 4 times on the same days as those in the peptide 1-administered group.
The results in which the points of time (days) at which a peptide solution was administered to each mouse and the volume (mm^3) of a tumor site were temporally measured are shown in FIG. 21. For the volume of the tumor site, the width and the length of the tumor site determined from the appearance of the mouse were measured and calculated using the following formula. [Volume(mm^3) of Tumor Site]=([Width(mm) of Tumor Site]^2×[Length(mm) of Tumor Site])/2
The “width of tumor site” referred herein means a maximum width of a portion in which the skin has risen due to the tumor and the “length of tumor site” means a maximum length of a portion in which the skin has risen due to the tumor.

MKN45 strain = test: MTT assay, MKN45 strain; type: cell-based; settings: 72 hours, peptide concentrations up to 250 μM
Experimental: (§1) Specifically, first, cells plated in a 96-well microplate such that the density thereof became 5×10^3 cells/well were cultured for one night in a culture solution having the same composition as those in the reference examples. […] After the culturing, an MTT-containing PBS solution was added to the culture solution, and the mixture was incubated for 4 hours. Then, formazan which was generated by putting 100 μL of isopropanol (containing 34 (v/v) % of hydrochloric acid) into each of the wells was dissolved. The absorbance of each of the wells of the microplate at 570 nm was measured using a microplate reader. As controls, culturing was performed in the same manner except that no peptide was added to the strains, an MTT assay was performed thereon, and the absorbance at 570 nm was measured (untreated).
(§2) In the method for measuring the viable cell counts, cells were cultured for 3 days similarly to Example 1 except that a 25 μM (10 μM for an HL-60 strain, a K562 strain, and a U937 strain) culture solution containing a control peptide or a peptide 1 was used, and the viable cell counts were measured. As a comparison, culturing was performed similarly to the above using a culture solution containing no peptide, and the viable cell counts were measured (untreated).
(§3) In addition, in the method for performing an MTT assay, cells were cultured for 72 hours similarly to Example 2 except that a peptide to be added to a strain was set to a control peptide or a peptide 1 at 25 μM (10 μM for an HL-60 strain, a K562 strain, and a U937 strain), an MTT assay was performed thereon, and the absorbance at 570 nm was measured. As a comparison, culturing was performed similarly to the above using a culture solution containing no peptide, and the MTT assay was performed thereon (untreated).
(§4) Specifically, the cells were cultured for 72 hours similarly to Example 2 except that a peptide to be added to a cell was set to a peptide 1, 2, 5, or 6, MTT assays were performed thereon, and the absorbance at 570 nm was measured. As a comparison, culturing was performed similarly to the above using a culture solution containing no peptide, and the MTT assay was performed thereon (untreated).
(§5) Specifically, the cells were cultured for 72 hours similarly to Example 2 except that peptides to be added to cell strains were set to peptides 7 to 14, MTT assays were performed thereon, and the absorbance at 570 nm was measured. […]
(§6) Specifically, the cells were cultured for 72 hours similarly to Example 2 except that a peptide to be added to a cell strain was set to a peptide 15 or 16, an MTT assay was performed thereon, and the absorbance at 570 nm was measured. […]

293 FLG = test: MTT assay, 293 FLG cells; type: cell-based; settings: 72 hours, peptide concentrations up to 250 μM
Experimental: as §1, §2, §3, §4, §5, §6

K562 strain = test: MTT assay, K562 strain; type: cell-based; settings: 72 hours; for absorbance at 570 nm (MTT assay), influence on cell proliferation: peptide 0 μM to 100 μM
Experimental: (§7) Specifically, first, cells plated in a 96-well microplate such that the density thereof became 5×10^3 cells/well were cultured for one night in a culture solution having the same composition as those in the reference examples. Thereafter, the culture solution was exchanged with 100 μL of a culture solution of which the concentration of peptides is 0 μM to 100 μM for culturing for 72 hours. After the culturing, an MTT-containing PBS solution was added to the culture solution, and the mixture was incubated for 4 hours. Then, formazan which was generated by putting 100 μL of isopropanol (containing 34 (v/v) % of hydrochloric acid) into each of the wells was dissolved. The absorbance of each of the wells of the microplate at 570 nm was measured using a microplate reader. As controls, culturing was performed in the same manner except that no peptide was added to the strains, an MTT assay was performed thereon, and the absorbance at 570 nm was measured (untreated).
(§8) Specifically, the cells were cultured for 72 hours similarly to Example 2 except that a peptide to be added to a cell strain was set to peptide 1, 3, or 4, or a control peptide, an MTT assay was performed thereon, and the absorbance at 570 nm was measured.
as §2, §3, §4
as §4, with “that peptides” for “that a peptide”, “to” for “to a”, “cell strains were” for “cell was”, “to peptides 7 to 14,” for “to a peptide 1, 2, 5, or 6,”
Specifically, the cells were cultured for 72 hours similarly to Example 2 except that a peptide to be added to a cell strain was set to a peptide 15 or 16, an MTT assay was performed thereon, and the absorbance at 570 nm was measured. As a comparison, culturing was performed similarly to the above using a culture solution containing no peptide, and the MTT assay was performed thereon (untreated).

293 FLG/LIX1L = test: MTT assay, 293 FLG/LIX1L cells; type: cell-based; settings: 72 hours, peptide concentrations up to 250 μM
Experimental: as §1, §2, §3, §4, §5, §6

NUGC-4 strain = test: MTT assay, NUGC-4 strain; type: cell-based; settings: 72 hours, peptide concentrations up to 250 μM
Experimental: as §1, §2, §3, §4, §5, §6

U937 strain = test: MTT assay, U937 strain; type: cell-based; settings: peptide 0 μM to 100 μM, 72 hours
Experimental: as §7, §8, §2, §3

RPMI8226 strain = test: MTT assay, RPMI8226 strain; type: cell-based; settings: peptide 0 μM to 100 μM, 72 hours
Experimental: as §7, §8

Compound | absorbance at 570 nm (MTT assay), cell proliferation (U937 strain) | absorbance at 570 nm (MTT assay), influence on cell proliferation (K562 strain) | absorbance at 570 nm (MTT assay), influence on cell proliferation (RPMI8226 strain) | also measured
N=C(N)NCCC[C@H](NC(=O)CNC(=O)[C@@H](N)Cc1ccc(O)cc1)C(=O)N[C@@H](CCCCN)C(=O)N[C@@H](CCCCN)C(=O)N[C@@H](CCCNC(=N)N)C(=O)N[C@@H](CCCNC(=N)N)C(=O)N[C@@H](CCC(N)=O)C(=O)N[C@@H](CCCNC(=N)N)C(=O)N[C@@H](CCCNC(=N)N)C(=O)N[C@@H](CCCNC(=N)N)C(=O)NCCCCCC(N)=O [control peptide, reference compound] |  |  |  | body weight (MKN45 cell strains): no particularly significant change
YGRKKRRQRRR-X-HTQGYGRVNV-NH2 (YGRKKRRQRRRXHTQGYGRVNV; ε-aminocaproic acid linker; C-terminal amide; peptide 6) |  |  |  | cell proliferation (MTT assay, absorbance at 570 nm) (MKN45 strain): not inhibited; cell proliferation (MTT assay, absorbance at 570 nm) (293 FLG): not inhibited; cell proliferation (MTT assay, absorbance at 570 nm) (K562 strain; peptide concentrations up to 250 μM): not inhibited; cell proliferation (MTT assay, absorbance at 570 nm) (293 FLG/LIX1L): not inhibited; cell proliferation (MTT assay, absorbance at 570 nm) (NUGC-4 strain): not inhibited
peptide 3: peptide in which the Y136-containing partial sequence consists of 20 amino acids (YGRKKRRQRRRXEMVPSNSPPYVCYVTLPGGS; peptide 3) | inhibited | inhibited | not inhibited | 
peptide 4: peptide in which the Y136-containing partial sequence consists of 30 amino acids (YGRKKRRQRRRXALVVYEMVPSNSPPYVCYVTLPGGSCFGSF; peptide 4) | inhibited | inhibited | not inhibited | 
